Data reported in US20110305703A1, “ISOLATED VEGF-C AND VEGF-D PEPTIDES AND USES THEREOF” (Vegenics Pty Limited, priority 2008, published 2011).
Primed or numbered codes have the meaning given here. No end group written: not given here. *: point of attachment. Biotin = O=C1N[C@H]2[C@H](CS[C@H]2CCCCC(=O)*)N1; Biotin′ = not defined here

System: VEGF-D neutralizing monoclonal antibody mAb 4A5 (VDnmAb)
Test: ELISA of biotinylated synthetic peptides on streptavidin plates for VDnmAb binding
Settings: 1st peptide library; 10 pmol peptide; VDnmAb 2 μg/ml; signal more than two-fold greater than background considered positive
From the text: Peptides. A series of synthetic 15-mer peptides (peptides 1 to 35, SEQ ID NOs: 4 to 38 in FIG. 4B, which overlap each other by 12 amino acids) were synthesized (Mimotopes Pty Ltd, Melbourne, Australia). The peptides encompassed the VHD of human VEGF-D (SEQ ID NO: 3, FIG. 4A). Peptide 36 (SEQ ID NO: 39) represented an artificial sequence including a FLAG tag as a positive control for a commercial anti-FLAG mAb (M2; Sigma) that was used as control for non-specific binding to peptides 1 to 35 (SEQ ID NOs: 4 to 38). Biotin was included at the N-terminal of each peptide during synthesis, except that peptide 1 (SEQ ID NO: 4, representing the N-terminal of the VHD) has biotin at the C-terminal. The four-amino acid linker “SGSG” was introduced between the N-terminal of each peptide sequence and biotin to provide more flexibility to peptides after immobilization on streptavidin plates, except peptide 1 (SEQ ID NO: 4) that included the C-terminal linker “GSG”.
ELISA. Reacti-Bind streptavidin high-binding-capacity coated plates (Pierce) were coated with 10 pmol of each peptide in PBS, blocked with 5% milk in PBS-0.1% Tween 20, and incubated with 100 μl of VEGF-D neutralizing monoclonal antibody mAb 4A5 (referred to herein as VDnmAb) or M2 at 2 μg/ml for 1 h at room temperature. Bound mAb was detected with goat anti-mouse IgG coupled with HRP. ABTS was used as the substrate, and the absorbance was read at 405 nm in a multiwell plate reader.
In this 2nd peptide library, biotin was included at the N-terminal of each peptide, and the four-amino acid linker “SGSG” was introduced between each peptide sequence and the biotin residue to provide more flexibility to peptides after immobilization on streptavidin plates. ELISA-based analysis of the 2nd peptide library was carried out as for the 1st peptide library.
Peptide 67 (SEQ ID NO: 141, the same as peptide 36, SEQ ID NO: 39 from the 1st library) and peptide 68 (SEQ ID NO: 142), both containing the FLAG tag, were used as controls. In this 3rd peptide library, biotin was included at the N-terminal of each peptide except peptides 6, 12 and 14 (SEQ ID NOs: 80, 86 and 88) which have C-terminal biotin residues. To provide more flexibility to peptides after immobilization on streptavidin plates, an amino acid linker was introduced between biotin residues and the peptide sequence: “SGSG” for N-terminal biotin; “SGS” for C-terminal biotin. ELISA-based analysis of the 3rd peptide library was carried out as for the 1st peptide library, described in Example 1.

Row | Substance | VDnmAb binding to peptide (ELISA signal, absorbance at 405 nm)
1 | FRCGGCCNEESLICM (Biotin-SGSGFRCGGCCNEESLICM; cysteine pairing not given here) [peptide 18 (SEQ ID NO: 21), residues 140 to 154 of human VEGF-D, N-terminal biotin and SGSG linker] | positive
2 | VNVFRCGGCCNEESL (Biotin-SGSGVNVFRCGGCCNEESL; cysteine pairing not given here) [peptide 17 (SEQ ID NO: 20), residues 137 to 151 of human VEGF-D, N-terminal biotin and SGSG linker] | the strongest
3 | peptide 16 (SEQ ID NO: 19): 1st library 15-mer which lacks the three C-terminal residues of peptide 17, SEQ ID NO: 20 (SGSGPPCVNVFRCGGCCNE) | does not bind VDnmAb

Same assay, conditions: 2nd peptide library; 10 pmol peptide; VDnmAb 2 μg/ml; signal more than two-fold greater than background considered positive

Row | Substance | VDnmAb binding to peptide (ELISA signal, absorbance at 405 nm)
4 | 30 (SEQ ID NO: 69): from mouse VEGF-D, homologous to Peptide 31 (SEQ ID NO: 70): serine 150 to glycine, leucine 151 to valine (Biotin-SGSGVNVFRCGGCCNEEGV; cysteine pairing not given here) | complete loss of VDnmAb binding
5 | FRCGGCCNEESL (Biotin-SGSGFRCGGCCNEESL; cysteine pairing not given here) [peptide 15 (SEQ ID NO: 54), residues 140 to 151 of human VEGF-D, 2nd library, N-terminal biotin and SGSG linker] | positive
6 | NVFRCGGCCNEESL (Biotin-SGSGNVFRCGGCCNEESL; cysteine pairing not given here) [peptide 13 (SEQ ID NO: 52), residues 138 to 151 of human VEGF-D, N-terminal biotin and SGSG linker] | positive
7 | VFRCGGCCNEESL (Biotin-SGSGVFRCGGCCNEESL; cysteine pairing not given here) [peptide 14 (SEQ ID NO: 53), residues 139 to 151 of human VEGF-D, N-terminal biotin and SGSG linker] | the strongest
8 | VNVFRCGGCCNEESL (Biotin-SGSGVNVFRCGGCCNEESL; cysteine pairing not given here) [peptide 17 (SEQ ID NO: 20), residues 137 to 151 of human VEGF-D, N-terminal biotin and SGSG linker] | bound to VDnmAb
9 | VPLMRCGGCCNDEGL (Biotin-SGSGVPLMRCGGCCNDEGL; not fully specified; cysteine pairing not given here) [peptide 33 (SEQ ID NO: 72), residues 78 to 92 of VEGF-A, biotin and linker] | did not bind the antibody
10 | VSLLRCTGCCGDENL (Biotin-SGSGVSLLRCTGCCGDENL; not fully specified; cysteine pairing not given here) [peptide 35 (SEQ ID NO: 74), residues 78 to 92 of PlGF, biotin and linker] | did not bind the antibody
11 | VSVYRCGGCCNSEGL (Biotin-SGSGVSVYRCGGCCNSEGL; not fully specified; cysteine pairing not given here) [peptide 32 (SEQ ID NO: 71), residues 157 to 171 of human VEGF-C, biotin and linker] | did not bind the antibody
12 | VTVQRCGGCCPDDGL (Biotin-SGSGVTVQRCGGCCPDDGL; not fully specified; cysteine pairing not given here) [peptide 34 (SEQ ID NO: 73), residues 73 to 87 of VEGF-B, biotin and linker] | did not bind the antibody
13 | peptide 18 (SEQ ID NO: 57): peptide 14 (SEQ ID NO: 53) with deletion of the leucine residue corresponding to position 151 (SGSGVFRCGGCCNEES) | complete loss of VDnmAb binding
14 | peptide 22 (SEQ ID NO: 61): 2nd library: single mutation of cysteine in the binding region, C146S (SGSGVNVFRCGGCSNEESL) | very minor or no effect on VDnmAb binding

Same assay, conditions: 3rd peptide library; 10 pmol peptide; VDnmAb 2 μg/ml; signal more than two-fold over background considered positive

Row | Substance | VDnmAb binding to peptide (ELISA signal, absorbance at 405 nm)
15 | CGGCCNEESL (SGSGCGGCCNEESL) [peptide 15 (SEQ ID NO: 89)] | positive
16 | FRCGGCCNEESL [peptide 12 (SEQ ID NO: 86)] (FRCGGCCNEESLSGS-{Biotin′}; cysteine pairing not given here) | decreases in VDnmAb binding
17 | GGCCNEESL (SGSGGGCCNEESL) [peptide 16 (SEQ ID NO: 90)] | positive
18 | RCGGCCNEESL [peptide 13 (SEQ ID NO: 87)] (Biotin-SGSGRCGGCCNEESL; cysteine pairing not given here) | the strongest
19 | RCGGCCNEESL [peptide 14 (SEQ ID NO: 88)] (RCGGCCNEESLSGS-{Biotin′}; cysteine pairing not given here) | decreases in VDnmAb binding
20 | VFRCGGCCNEESL (VFRCGGCCNEESLSGS-{Biotin′}; cysteine pairing not given here) [peptide 6 (SEQ ID NO: 80)] | decreases in VDnmAb binding
21 | peptide 1 (SEQ ID NO: 75): 3rd library: variant of VFRCGGCCNEESL with mutation S150C (SGSGVFRCGGCCNEECL) | loss, even complete loss, of VDnmAb binding
22 | peptide 2 (SEQ ID NO: 76): 3rd library: variant of VFRCGGCCNEESL with mutation S150A (SGSGVFRCGGCCNEEAL) | reduced VDnmAb binding somewhat
23 | peptide 3 (SEQ ID NO: 77): 3rd library: variant of VFRCGGCCNEESL with mutation S150T (SGSGVFRCGGCCNEETL) | loss, even complete loss, of VDnmAb binding
24 | peptide 4 (SEQ ID NO: 78): 3rd library: variant with deletion of one of N147, E148, E149, S150 (SGSGVFRCGGCCNEEL) | loss of VDnmAb binding
25 | peptide 7 (SEQ ID NO: 81): 3rd library: mutation of residue 151 to valine (SGSGVFRCGGCCNEESV) | decreased VDnmAb binding
26 | peptide 8 (SEQ ID NO: 82): 3rd library: mutation of residue 151 to alanine (SGSGVFRCGGCCNEESA) | decreased VDnmAb binding
27 | peptide 9 (SEQ ID NO: 83): 3rd library: mutation V139L (SGSGLFRCGGCCNEESL) | little or no effect on VDnmAb binding
28 | peptide 10 (SEQ ID NO: 84): 3rd library: mutation V139A (SGSGAFRCGGCCNEESL) | little or no effect on VDnmAb binding
29 | peptide 17 (SEQ ID NO: 91): 3rd library: mutation F140Y (SGSGVYRCGGCCNEESL) | little or no effect on VDnmAb binding
30 | peptide 18 (SEQ ID NO: 92): 3rd library: mutation F140A (SGSGVARCGGCCNEESL) | little or no effect on VDnmAb binding
31 | peptide 19 (SEQ ID NO: 93): 3rd library: deletion of F140 (SGSGVRCGGCCNEESL) | little or no effect on VDnmAb binding
32 | peptide 20 (SEQ ID NO: 94): 3rd library: mutation R141K (SGSGVFKCGGCCNEESL) | more pronounced effect
33 | peptide 21 (SEQ ID NO: 95): 3rd library: mutation R141A (SGSGVFACGGCCNEESL) | little or no effect on VDnmAb binding

Same assay, conditions: 3rd peptide library; 10 pmol peptide; VDnmAb 2 μg/ml; signal more than two-fold over background considered positive; listed as peptide 5 (SEQ ID NO: 79)

Row | Substance | VDnmAb binding to peptide (ELISA signal, absorbance at 405 nm)
34 | VFRCGGCCNEESL (Biotin-SGSGVFRCGGCCNEESL; cysteine pairing not given here) [peptide 14 (SEQ ID NO: 53), residues 139 to 151 of human VEGF-D, N-terminal biotin and SGSG linker] | bound to VDnmAb
